This note sets out measurements from US12258365B2, “Organophosphorus-substituted compounds as c-MET inhibitors and therapeutic uses thereof” (BETA PHARMA, INC., priority 2018, dated 2025).

Chain of c-MET (P08581 25-1390): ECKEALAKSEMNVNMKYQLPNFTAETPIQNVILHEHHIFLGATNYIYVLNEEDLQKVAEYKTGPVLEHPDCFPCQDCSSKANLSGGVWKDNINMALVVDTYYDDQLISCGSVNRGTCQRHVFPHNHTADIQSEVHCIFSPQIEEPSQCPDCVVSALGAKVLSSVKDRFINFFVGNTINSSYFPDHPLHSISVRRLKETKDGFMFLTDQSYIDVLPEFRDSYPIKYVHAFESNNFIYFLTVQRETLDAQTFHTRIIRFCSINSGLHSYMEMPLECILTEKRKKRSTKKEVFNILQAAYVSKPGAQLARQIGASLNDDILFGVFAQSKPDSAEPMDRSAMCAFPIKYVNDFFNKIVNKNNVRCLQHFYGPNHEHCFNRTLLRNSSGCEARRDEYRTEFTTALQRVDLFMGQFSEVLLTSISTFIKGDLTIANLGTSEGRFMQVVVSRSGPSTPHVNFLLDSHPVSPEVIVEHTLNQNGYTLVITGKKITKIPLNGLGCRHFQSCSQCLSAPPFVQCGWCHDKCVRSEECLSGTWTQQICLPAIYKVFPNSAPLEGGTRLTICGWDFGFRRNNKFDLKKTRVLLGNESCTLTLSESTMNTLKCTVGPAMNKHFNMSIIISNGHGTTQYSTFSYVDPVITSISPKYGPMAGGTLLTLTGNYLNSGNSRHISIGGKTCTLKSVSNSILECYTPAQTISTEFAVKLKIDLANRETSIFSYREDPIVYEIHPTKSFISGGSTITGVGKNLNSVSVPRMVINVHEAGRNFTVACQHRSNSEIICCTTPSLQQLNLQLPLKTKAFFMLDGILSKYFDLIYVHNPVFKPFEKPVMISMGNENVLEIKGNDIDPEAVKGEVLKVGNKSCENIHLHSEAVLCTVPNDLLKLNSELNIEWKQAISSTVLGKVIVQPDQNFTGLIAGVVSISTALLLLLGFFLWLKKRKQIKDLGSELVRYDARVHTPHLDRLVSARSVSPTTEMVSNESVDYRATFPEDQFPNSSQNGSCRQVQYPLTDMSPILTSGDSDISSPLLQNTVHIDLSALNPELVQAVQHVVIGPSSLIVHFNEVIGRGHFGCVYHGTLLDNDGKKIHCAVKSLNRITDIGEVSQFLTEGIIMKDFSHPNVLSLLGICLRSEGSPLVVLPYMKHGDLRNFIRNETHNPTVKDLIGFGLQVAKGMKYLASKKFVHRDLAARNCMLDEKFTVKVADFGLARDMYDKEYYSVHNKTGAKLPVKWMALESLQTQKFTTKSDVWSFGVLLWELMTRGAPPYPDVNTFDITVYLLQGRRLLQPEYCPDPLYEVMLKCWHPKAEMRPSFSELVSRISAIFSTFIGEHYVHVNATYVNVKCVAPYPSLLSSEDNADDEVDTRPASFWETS

The assay has as its target c-MET (Homo sapiens, UniProt P08581). As to the kind of experiment: Biochemical kinase assay (33P-ATP, filter-binding). Particulars: radiometric 33P-ATP filter-binding kinase reaction, 20 min preincubation, 2 hours at room temperature. The procedure:
Reaction Buffer: 20 mM Hepes (pH 7.5), 10 mM MgCl2, 1 mM EGTA, 0.02%, Brij35, 0.02 mg/mL BSA, 0.1 mM Na3VO4, 2 mM DTT and 1% DMSO.
Required cofactors were added individually to each kinase reaction.
The testing compounds were dissolved in 100% DMSO to specific concentration. The serial dilution was conducted by Integra Viaflo Assist in DMSO.
• 1. Prepare substrate in freshly prepared Reaction Buffer. • 2. Deliver any required cofactors to the substrate solution above. • 3. Deliver kinase into the substrate solution and gently mix. • 4. Deliver compounds in 100% DMSO into the kinase reaction mixture by Acoustic technology (Echo550; nanoliter range), incubate for 20 min at room temp. • 5. Deliver ^33P-ATP (Specific activity 10 μCi/μL) into the reaction mixture to initiate the reaction. • 6. Incubate for 2 hours at room temperature. • 7. Detect radioactivity by filter-binding method. • 8. Kinase activity data were expressed as the percent remaining kinase activity in test samples compared to vehicle (DMSO) reactions. IC50 values and curve fits were obtained using Prism (GraphPad Software) (Table 1).
`CP(C)(=O)c1ccc(-c2cnc3nnn(Cc4ccc5ncccc5c4)c3n2)cc1F` [Example 5, (2-Fluoro-4-(1-(quinolin-6-ylmethyl)-1H-[1,2,3]triazolo[4,5-b]pyrazin-6-yl)phenyl)dimethyl-phosphine Oxide] gave a 50% inhibitory concentration (IC50) of less than 10 nM. `CP(C)(=O)c1ccc(Nc2cnc3nnn(Cc4ccc5ncccc5c4)c3n2)cc1F` [Example 12, (2-Fluoro-4-((1-(quinolin-6-ylmethyl)-1H-[1,2,3]triazolo[4,5-b]pyrazin-6-yl)amino)phenyl)dimethylphosphine Oxide]: the IC50 was less than 10 nM. To `CP(C)(=O)c1cccc(-c2ccc3nnc(C(F)(F)c4ccc5nccn5c4)n3n2)c1` [Example 13, (3-(3-(Difluoro(imidazo[1,2-a]pyridin-6-yl)methyl)-[1,2,4]triazolo[4,3-b]pyridazin-6-yl)phenyl)dimethylphosphine Oxide] belongs 21 to 100 nM; to `CP(C)(=O)Cn1cc(-c2cnc3nnn(Cc4ccc5nccn5c4)c3n2)cn1` [Example 10, ((4-(1-(Imidazo[1,2-a]pyridin-6-ylmethyl)-1H-[1,2,3]triazolo[4,5-b]pyrazin-6-yl)-1H-pyrazol-1-yl)methyl)dimethylphosphine Oxide], 21 to 100 nM; to `CP(C)(=O)c1cccc(-c2cnc3nnn(Cc4ccc5nccn5c4)c3n2)c1` [Example 7, (3-(1-(Imidazo[1,2-a]pyridin-6-ylmethyl)-1H-[1,2,3]triazolo[4,5-b]pyrazin-6-yl)phenyl)-dimethylphosphine Oxide], 11 to 20 nM. Under `CP(C)(=O)c1ccc(Nc2cnc3nnn(Cc4ccc5ncccc5c4)c3n2)cc1` [Example 11, Dimethyl(4-((1-(quinolin-6-ylmethyl)-1H-[1,2,3]triazolo[4,5-b]pyrazin-6-yl)amino)phenyl)phosphine Oxide] stands less than 10 nM. To `Cn1cc2cc(Cn3nnc4ncc(-c5ccc(P(C)(C)=O)c(F)c5)nc43)c(F)cc2n1` [Example 21, (2-fluoro-4-(1-((6-fluoro-2-methyl-2H-indazol-5-yl)methyl)-1H-[1,2,3]triazolo[4,5-b]pyrazin-6-yl)phenyl)-dimethylphosphine oxide] belongs less than 10 nM; to `CC(c1ccc2nccn2c1)n1nnc2ncc(-c3ccc(P(C)(C)=O)cc3)nc21` (stereo not shown) [Example 15, (4-(1-(1-(Imidazo[1,2-a]pyridin-6-yl)ethyl)-1H-[1,2,3]triazolo[4,5-b]pyrazin-6-yl)phenyl)dimethylphosphine Oxide], less than 10 nM; to `CP(=O)(O)Cc1ccc(-c2cnc3nnn(Cc4ccc5ncccc5c4)c3n2)cc1` [Example 3, Methyl(4-(1-(quinolin-6-ylmethyl)-1H-[1,2,3]triazolo[4,5-b]pyrazin-6-yl)benzyl)-phosphinic Acid], less than 10 nM. `Cn1cc2cc(Cn3nnc4ncc(-c5ccc(P(C)(C)=O)cc5)nc43)c(F)cc2n1` [Example 20, (4-(1-((6-Fluoro-2-methyl-2H-indazol-5-yl)methyl)-1H-[1,2,3]triazolo[4,5-b]pyrazin-6-yl)phenyl)dimethylphosphine Oxide]: the IC50 was less than 10 nM. To `CC(c1ccc2ncccc2c1)n1nnc2ncc(-c3ccc(P(C)(C)=O)cc3)nc21` (stereo not shown) [Example 19, Dimethyl(4-(1-(1-(quinolin-6-yl)ethyl)-1H-[1,2,3]triazolo[4,5-b]pyrazin-6-yl)phenyl)phosphine Oxide] belongs less than 10 nM. Under `CP(C)(=O)c1ccc(-c2cnc3nnn(Cc4ccc5ncc(F)n5c4)c3n2)cc1` [Example 17, (4-(1-((3-Fluoroimidazo[1,2-a]pyridin-6-yl)methyl)-1H-[1,2,3]triazolo[4,5-b]pyrazin-6-yl)phenyl)dimethylphosphine Oxide] stands 21 to 100 nM. To `CP(C)(=O)c1cnc2nnn(Cc3ccc4ncccc4c3)c2n1` [Example 18, Dimethyl(1-(quinolin-6-ylmethyl)-1H-[1,2,3]triazolo[4,5-b]pyrazin-6-yl)phosphine Oxide] belongs 1000 to 6000 nM; to `CP(C)(=O)c1ccc(-c2cnc3nnn(Cc4ccc5ncccc5c4)c3n2)cc1` [Example 1, Dimethyl(4-(1-(quinolin-6-ylmethyl)-1H-[1,2,3]triazolo[4,5-b]pyrazin-6-yl)phenyl)-phosphine oxide], less than 10 nM. In the case of `CP(C)(=O)c1ccc(-c2cnc3nnn(Cc4ccc5ncccc5c4)c3n2)c(F)c1` [Example 4, (3-Fluoro-4-(1-(quinolin-6-ylmethyl)-1H-[1,2,3]triazolo[4,5-b]pyrazin-6-yl)phenyl)dimethylphosphine oxide], the IC50 is 11 to 20 nM.

`CCOP(C)(=O)Cc1ccc(-c2cnc3nnn(Cc4ccc5ncccc5c4)c3n2)cc1` (stereo not shown) [Example 2, Ethyl methyl(4-(1-(quinolin-6-ylmethyl)-1H-[1,2,3]triazolo[4,5-b]pyrazin-6-yl)benzyl)-phosphinate] displayed an IC50 of less than 10 nM. To `Cn1cc2cc(Cn3nnc4ncc(-c5ccc(P(C)(C)=O)c(F)c5)nc43)ccc2n1` [Example 22, (2-Fluoro-4-(1-((2-methyl-2H-indazol-5-yl)methyl)-1H-[1,2,3]triazolo[4,5-b]pyrazin-6-yl)phenyl)dimethylphosphine Oxide] belongs less than 10 nM. Under `CP(C)(=O)c1ccc(-c2cnc3nnn(Cc4ccc5nccn5c4)c3n2)cc1` [Example 6, (4-(1-(Imidazo[1,2-a]pyridin-6-ylmethyl)-1H-[1,2,3]triazolo[4,5-b]pyrazin-6-yl)phenyl)dimethylphosphine Oxide] stands less than 10 nM; under `CP(C)(=O)c1ccc(-c2cnc3nnn(Cc4ccc5c(c4)CCO5)c3n2)cc1` [Example 16, (4-(1-((2,3-Dihydrobenzofuran-5-yl)methyl)-1H-[1,2,3]triazolo[4,5-b]pyrazin-6-yl)phenyl)dimethylphosphine Oxide], 11 to 20 nM. Under `CP(C)(=O)Cn1cc(-c2cnc3nnn(Cc4ccc5ncccc5c4)c3n2)cn1` [Example 9, Dimethyl((4-(1-(quinolin-6-ylmethyl)-1H-[1,2,3]triazolo[4,5-b]pyrazin-6-yl)-1H-pyrazol-1-yl)methyl)phosphine Oxide] stands 21 to 100 nM; under `CP(C)(=O)c1cccc(-c2cnc3nnn(Cc4ccc5ncccc5c4)c3n2)c1` [Example 8, Dimethyl(3-(1-(quinolin-6-ylmethyl)-1H-[1,2,3]triazolo[4,5-b]pyrazin-6-yl)phenyl)phosphine Oxide], 11 to 20 nM. For the molecule `CP(C)(=O)c1ccc(-c2ccc3nnc(C(F)(F)c4ccc5nccn5c4)n3n2)cc1` [Example 14, (4-(3-(Difluoro(imidazo[1,2-a]pyridin-6-yl)methyl)-[1,2,4]triazolo[4,3-b]pyridazin-6-yl)phenyl)dimethylphosphine Oxide], the half-maximal inhibitory concentration (IC50) lay within 1000 to 6000 nM.
